Consider one molecule from ChEMBL document CHEMBL5346930, “Discovery of novel N-benzylarylamide-dithiocarbamate based derivatives as dual inhibitors of tubulin polymerization and LSD1 that inhibit gastric cancers” (Eur J Med Chem, 2023).

Molecules are shown by their SMILES. Activity calls are given as the source filed them. The calls are words filed in the database; no cut-off is given here.

One assay concerns A549. The assay is described as follows: Antiproliferative activity against human A549 cells assessed as inhibition of cell growth incubated for 48 hrs by MTT assay. The assay is classed as functional, cell-based. Particulars: A549, 48 h. A general note: Formazan colour is commonly taken as a measure of viable cells.
A further assay deals with TE-1. The assay is described as follows: Antiproliferative activity against human TE-1 cells assessed as inhibition of cell growth incubated for 48 hrs by MTT assay. The assay is classed as functional, cell-based. Particulars: TE-1, 48 h.
The target of the next assay is Tubulin. The assay is described as follows: Inhibition of tubulin polymerization (unknown origin) assessed as reduction in fluorescence intensity measured every 60 secs for 1 hr by microplate reader analysis. It counts as protein-complex assay, Homo sapiens.
For the next assay, the target named is Tubulin (Homo sapiens) (UniProt P68371+Q9H4B7+P0DPH7+P68366+Q13509+Q71U36+P04350+Q3ZCM7+P07437+P68363+Q9BQE3+Q6PEY2+Q13885+Q9BVA1+Q9BUF5). The experiment in a line: Inhibition of tubulin polymerization in human MGC-803 cells assessed as destruction of microtubule network incubated for 48 hrs by immunofluorescence staining based fluorescence microscopic analysis. It counts as cell-based. Particulars: dose 0-24 nmol/L.

Assay [1] deals with Lysine-specific histone demethylase 1A (Homo sapiens, UniProt O60341). The experiment in a line: Inhibition of recombinant LSD1 (unknown origin) using H3K4me2 peptide as substrate preincubated for 10 mins followed by substrate addition and measured after 30 mins by amplex red based fluorescence microplate reader analysis.
For assay [2], the system named is MGC-803. The experiment in a line: Induction of cell cycle arrest in human MGC-803 cells assessed as accumulation of cells at G2/M phase at 24 nmol/L incubated for 48 hrs (reference value: 33%). The assay is classed as functional.
The subject of assay [3] is SGC-7901. The experiment in a line: Induction of cell cycle arrest in human SGC-7901 cells assessed as accumulation of cells at G2/M phase at 30 nmol/L incubated for 48 hrs (reference value: 32%). The assay is classed as functional.
The test system of assay [4] is SGC-7901. The assay is described as follows: Induction of cell cycle arrest in human SGC-7901 cells assessed as accumulation of cells at G2/M phase incubated for 48 hrs. The settings on record: dose 0-30 nmol/L. The assay is classed as functional, cell-based.
Assay [5] deals with MGC-803. The assay is described as follows: Induction of cell cycle arrest in human MGC-803 cells assessed as downregulation of Wee1 protein expression incubated for 48 hrs by Western blot analysis. The settings on record: dose 0-24 nmol/L. It counts as functional, cell-based.
For assay [6], the system named is SGC-7901. The assay is described as follows: Induction of cell cycle arrest in human SGC-7901 cells assessed as downregulation of CDC2 protein expression incubated for 48 hrs by Western blot analysis. It counts as functional, cell-based. The settings on record: dose 0-30 nmol/L. On the technique in general: Immunoblotting shows a protein as a band on a membrane.

Assay [7] concerns SGC-7901. The experiment in a line: Induction of cell cycle arrest in human SGC-7901 cells assessed as reduction in CDC2 phosphorylation at Thr161 residue at 0 to 30 nmol/L incubated for 48 hrs by Western blot analysis. The assay is classed as functional, cell-based. The settings on record: dose 0-30 nmol/L.
The subject of assay [8] is MGC-803. The experiment in a line: Induction of morphological changes in human MGC-803 cells assessed as reduction in cell density at 0 to 24 nmol/L incubated for 48 hrs by bright field microscopic analysis. It counts as functional, cell-based. Particulars: dose 0-24 nmol/L.
The subject of assay [9] is MGC-803. The experiment in a line: Induction of morphological changes in human MGC-803 cells assessed as varied size of nucleus at 0 to 24 nmol/L incubated for 48 hrs by DAPI staining based analysis. The assay is classed as functional, cell-based. Particulars: dose 0-24 nmol/L.
The test system of assay [10] is SGC-7901. The experiment in a line: Induction of apoptosis in human SGC-7901 cells assessed as activation of caspase-7 at 0 to 30 nmol/L incubated for 48 hrs by Western blot analysis. Particulars: dose 0-30 nmol/L. It counts as functional, cell-based.
Assay [11] concerns SGC-7901. The experiment in a line: Induction of apoptosis in human SGC-7901 cells assessed as increase in cleaved PARP level at 0 to 30 nmol/L incubated for 48 hrs by Western blot analysis. It counts as functional, cell-based. The settings on record: dose 0-30 nmol/L.
Assay [12] concerns MGC-803. The assay is described as follows: cells. Particulars: Homo sapiens, MGC-803, 48 h.
Description: Antiproliferative activity against human MGC-803 cells assessed as inhibition of cell growth incubated for 48 hrs by MTT assay

As a reminder, the IC50 is the concentration that inhibits the measured activity by half. On to `COc1ccc(CN(C(=O)CSC(=S)N2CCN(c3ccc(N)cc3)CC2)c2cc(OC)c(OC)c(OC)c2)cc1O`, for which the IC50 was 254 nM with A549; 31.4 nM with TE-1; 3060 nM on Tubulin; 2810 nM in [1]; 17 nM in the assay with MGC-803 [12]. Also, at Tubulin (Homo sapiens), the inhibition result is “Dose-Dependent Effect”. Also, the Activity in the assay on MGC-803 [2] was 60%; in the assay with SGC-7901 [3], 74%; in the assay on SGC-7901 [4], “Dose-Dependent Effect”; with MGC-803 [5], “Dose-Dependent Effect”; with SGC-7901 [6], “Dose-Dependent Effect”. Further, the outcome in the assay with SGC-7901 [7], in the assay with MGC-803 [8], in the assay with MGC-803 [9], in the assay on SGC-7901 [10] and in the assay on SGC-7901 [11] was Active.
